TmPep1050 sp act, CelM sp act and Ki data for two molecules are collected here from publication PMC3511314, “Functional Characterization of Two M42 Aminopeptidases Erroneously Annotated as Cellulases” (PLoS ONE, 2012).

Holding throughout (type): biochemical
Assay [1] concerns the target T1, TmPep1050 (Thermotoga maritima, UniProt Q9X0E0).
T1 construct: gene TM_1050; recombinant TmPep1050 (TM1050 ORF)
T1 sequence (Q9X0E0 1-331): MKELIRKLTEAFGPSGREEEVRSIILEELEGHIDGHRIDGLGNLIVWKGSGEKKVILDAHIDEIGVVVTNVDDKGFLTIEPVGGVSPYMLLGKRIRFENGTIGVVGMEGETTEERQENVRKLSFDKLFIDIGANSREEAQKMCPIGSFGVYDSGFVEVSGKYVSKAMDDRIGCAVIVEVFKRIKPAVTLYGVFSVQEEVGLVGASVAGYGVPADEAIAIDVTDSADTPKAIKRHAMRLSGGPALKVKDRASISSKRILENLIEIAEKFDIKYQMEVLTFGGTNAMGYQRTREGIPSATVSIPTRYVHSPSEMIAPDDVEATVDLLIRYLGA
The assay can be described thus: specific activity of pNA hydrolysis at […] substrate.

Assay [2] addresses T2, CelM (Acetivibrio thermocellus, UniProt P55742).
T2 construct: recombinant CelM bearing a C-terminal hexahistidine tag
T2 sequence (P55742 1-330): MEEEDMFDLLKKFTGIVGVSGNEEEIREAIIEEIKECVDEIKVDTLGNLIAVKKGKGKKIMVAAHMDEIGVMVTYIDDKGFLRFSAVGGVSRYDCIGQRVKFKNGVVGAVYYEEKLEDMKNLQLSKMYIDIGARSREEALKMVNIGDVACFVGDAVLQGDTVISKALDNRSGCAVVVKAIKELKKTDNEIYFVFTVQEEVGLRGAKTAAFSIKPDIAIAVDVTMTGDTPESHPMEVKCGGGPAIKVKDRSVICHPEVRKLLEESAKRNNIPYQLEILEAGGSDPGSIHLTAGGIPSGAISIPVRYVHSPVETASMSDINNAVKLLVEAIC
The assay can be described thus: specific activity of pNA hydrolysis at […] substrate.

Assay [3] addresses T1, TmPep1050. The assay can be described thus: inhibition of leucine aminopeptidase activity of purified enzyme, apparent Ki.
Assay [4] addresses T2, CelM. Described as above.

SMILES strings stand for the structures.

`CC(C)[C@H](N)C(=O)Nc1ccc([N+](=O)[O-])cc1` [L-Val-pNA]: the TmPep1050 sp act in assay [1] turned out to be 14.3±1.8 µmol min^−1 µmol^−1. In addition, the CelM sp act in assay [2] came to 8.4±0.016 µmol min^−1 µmol^−1.

On to `CC(C)C[C@H](NC(=O)[C@@H](O)[C@H](N)Cc1ccccc1)C(=O)O` [bestatin], for which the Ki in assay [3] is 0.432 ± 0.072 µM; in assay [4], 0.292 ± 0.066 µM.
